# In paper PMC5899049 (ACS infectious diseases, 2017):
# Where two headings read alike, the source gives them in different places.
# Columns and labels:
# [1] = system: E. coli, strain BL21(DE3); experiment: E. coli growth inhibition assay; format: cell-based, Escherichia coli; settings: for % E. coli growth inhibition (18 h): NI = no inhibition
# [2] = system: P. falciparum, Dd2 strain (MRA-150); settings: read-out: P. falciparum growth inhibition IC50; Dd2 (MRA-150) strain; data reported previously; cited from earlier work
# [3] = target: Recombinant P. falciparum IspD (Plasmodium falciparum, UniProt Q8I273); experiment: Pf IspD enzymatic assay; format: biochemical; settings: for PfIspD % inhibition at 1 μM (1000 nM): 1 μM (1000 nM) compound, 60 nM Pf IspD, NI = no inhibition; for IC50: read-out: PfIspD IC50, measured at 60 nM Pf IspD
# [4] = system: P. falciparum (Dd2 strain); experiment: Cytocidal; format: cell-based, Plasmodium falciparum; settings: LC50 could not be determined
# [5] = system: P. falciparum, Dd2 strain (MRA-150); experiment: P. falciparum growth inhibition; settings: Plasmodium falciparum, DD2, 72 h, read-out: IC50 value at 72 h
# Human IspD (hIspD) = target: T1, Human IspD (hIspD) (Homo sapiens, UniProt A4D126); experiment: Human IspD enzymatic assay; format: biochemical; settings: 2 μM hIspD, 37 °C, 16 h
# T1 sequence (A4D126 1-451): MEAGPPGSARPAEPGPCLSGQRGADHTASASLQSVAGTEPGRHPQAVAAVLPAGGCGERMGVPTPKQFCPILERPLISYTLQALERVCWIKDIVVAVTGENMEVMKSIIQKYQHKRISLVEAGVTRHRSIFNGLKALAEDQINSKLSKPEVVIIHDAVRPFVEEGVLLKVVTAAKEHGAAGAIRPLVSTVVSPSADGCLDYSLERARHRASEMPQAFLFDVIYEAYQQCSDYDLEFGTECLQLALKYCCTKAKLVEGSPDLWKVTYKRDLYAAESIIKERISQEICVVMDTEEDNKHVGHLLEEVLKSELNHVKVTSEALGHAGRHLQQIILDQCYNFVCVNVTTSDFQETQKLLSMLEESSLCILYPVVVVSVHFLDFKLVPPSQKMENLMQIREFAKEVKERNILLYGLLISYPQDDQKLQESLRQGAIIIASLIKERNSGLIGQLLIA
# [6] = system: Mycobacterium tuberculosis IspD; settings: concentrations up to 10 μM; cited from earlier work
# [7] = system: Arabidopsis thaliania IspD; settings: concentrations up to 10 μM; cited from earlier work
# [8] = system: E. coli, strain BL21(DE3); settings: 500 μM; NI = no inhibition; data reported previously; cited from earlier work
# P. falciparum IspD = settings: read-out: P. falciparum IspD Ki; cited from earlier work
# [9] = system: MEP pathway intermediates (CDP-ME, MEcPP, IPP) in P. falciparum schizont stage parasites; experiment: MEP pathway metabolite profiling by LC-MS/MS; format: cell-based, Plasmodium falciparum; settings: 1 μM 1a or 7a, 10 μM FOS; for Decrease in cellular levels of Pf IspD product CDP-ME: schizont stage; for Reduction of the IPP levels: 4 h treatment
# [10] = system: Escherichia coli IspD (EcIspD); settings: concentrations up to 10 μM; cited from earlier work
# [11] = system: MEP pathway metabolites in parasites starting at ring stage; settings: 5 μM FOS for 10 h starting at ring stage; ref 24 (Zhang et al.); cited from earlier work
structure (smiles),measurement,setting,value
"O=C(O)[C@H]1Cc2c([nH]c3ccccc23)[C@H](c2ccc(Cl)cc2Cl)N1 (single isomer, unassigned; ent-1a) [ent-1a]",% E. coli growth inhibition (18 h),[1]; 250 μM,no effect
same,IC50,[2],> 10000 nM
"O=C(O)[C@H]1Cc2c([nH]c3ccccc23)[C@@H](c2ccc(Cl)cc2Cl)N1 (single isomer, unassigned; ent-5a) [ent-5a]",% E. coli growth inhibition (18 h),[1]; 250 μM,18 ± 6 @ 250 μM %
same,PfIspD % inhibition at 1 μM (1000 nM),[3],27 ± 5% inh. @ 1 μM
same,IC50,[2],3000 ± 200 nM
"O=C(O)[C@@H]1Cc2c([nH]c3ccccc23)[C@@H](c2ccc(Cl)cc2Cl)N1 [1a, (1R,3S)-MMV008138]",Parasite growth at 72 h after wash-out,[4]; 6 h incubation,grow similarly to untreated controls
same,Parasite growth at 72 h after wash-out,[4]; 12 h incubation,grow similarly to untreated controls
same,IC50,[5],350 ± 30 nM
same,Human IspD CDP-ribitol formation,Human IspD (hIspD); 20 μM 1a,not inhibited
same,Human IspD CDP-ribitol formation,Human IspD (hIspD); 200 μM 1a,not inhibited
same,Inhibition of Mycobacterium tuberculosis IspD,[6],did not inhibit
same,Inhibition of Arabidopsis thaliania IspD,[7],did not inhibit
same,% E. coli growth inhibition (18 h),[8],no effect
same,Ki,P. falciparum IspD,7 to 13 nM
same,Decrease in cellular levels of Pf IspD product CDP-ME,[9]; 2 h exposure,67 ± 2%
same,Decrease in cellular levels of Pf IspD product CDP-ME,[9]; 4 h exposure,84 ± 8%
same,Reduction of the IPP levels,[9],> 90%
same,IC50,[2],250 ± 70 nM
same,Inhibition of Escherichia coli IspD,[10],did not inhibit
COc1ccc(C2NC(C(=O)O)Cc3c2[nH]c2ccccc32)cc1OC (stereo not shown) [1x],IC50,[2],> 20000 nM
O=C(O)[C@@H]1Cc2c([nH]c3ccccc23)[C@H](c2ccc(Cl)cc2Cl)N1 [5a],% E. coli growth inhibition (18 h),[1]; 125 μM,no effect
same,IC50,[2],> 10000 nM
CNC(=O)C1Cc2c([nH]c3ccccc23)C(c2ccc(Br)cc2Cl)N1 (stereo not shown) [7j],IC50,[3],21 ± 6 nM
CNC(=O)C1Cc2c([nH]c3ccccc23)C(c2ccc(Cl)cc2Br)N1 (stereo not shown) [7k],IC50,[3],31 ± 4 nM
CCNC(=O)C1Cc2c([nH]c3ccccc23)C(c2ccc(Cl)cc2Cl)N1 (stereo not shown) [8a],IC50,[3],~1000 nM
Clc1ccc(C2NCCc3c2[nH]c2ccccc32)c(Cl)c1 (stereo not shown) [11a],% E. coli growth inhibition (18 h),[1]; 250 μM,45 ± 10 @ 250 μM %
same,PfIspD % inhibition at 1 μM (1000 nM),[3],7% inh. @ 1000
"O=CN(O)CCCP(=O)(O)O [FOS, fosmidomycin, reference compound]",MIC,"[1]; Escherichia coli, 18 h, read-out: E. coli minimum inhibitory concentration (MIC)",11.99 ± 0.02 µM
same,inhibition at 10 µM,"[3]; read-out: PfIspD % inhibition at 10 μM, 10 μM compound, 60 nM Pf IspD",~4%
same,Decrease in cellular levels of Pf IspD product CDP-ME,[9]; 2 h exposure,did not cause significant reduction
same,Decrease in cellular levels of Pf IspD product CDP-ME,[9]; 4 h exposure,did not cause significant reduction
same,Reduction of the IPP levels,[9],> 90%
same,Levels of CDP-ME,[11],reduced levels
same,IC50,[2],880 ± 70 nM
